Experimental findings from patent US20180271863A1, “TARGETING P2 PURINERGIC RECEPTORS TO TREAT HEPATOCELLULAR CARCINOMA (HCC)” (Baylor College of Medicine, priority 2015, published 2018) are described below.

“Also recorded” adds a separate entry of the source.

One assay relates to Hep3B cells. Put plainly: BrdU incorporation (proliferation) in Hep3B cells. The format is cell-based, human. On the procedure:
Light microscopic images (10X) of BrdU immunostained cells are also shown. Hep3B cells were maintained in serum-free conditions for 24 hours and were pre-treated with AF-353 (5 μM) for 30 minutes, prior to treatment with ATP (100 μM) for 24 hours. BrdU-positive cells are expressed as a percentage of total number of cells. Data represents mean±SEM, n=3-6, *p<0.05 vs untreated (un). To determine whether P2 purinergic receptor activation influences HCC cell proliferation, BrdU incorporation was assessed in HCC cells maintained in SFM for 24 hours and treated with ATP for 24 hours. […] Hep3B, 46%; SNU-387, 47% and PLC/PRF/5, 24%), identifying nucleotides as liver cancer cell mitogens (FIG. 7A). Normal human primary hepatocytes isolated from healthy adults (no known history of HCC) in suspension or freshly-frozen prior to shipment (Cryoport Systems, CA) were purchased from Triangle Research Labs, NC. […] Formalin-fixed and paraffin embedded liver sections from HCC patients were analyzed by immunohistochemistry with anti-P2X3 antibody (Abcam, Cambridge, Mass.). […] BrdU positive cells were counted and expressed as a percentage of the total number of cells in ten randomly selected high-power fields (20×) per coverslips.

For assay [1], the system named is Huh7 cells overexpressing P2X3. Kind of assay: BrdU incorporation in Huh7 cells transfected with P2X3 or pCMV6 vector. The format is cell-based, human. The method, then: Thereafter, these cells were treated with ATP+/-P2X3 antagonist, AF-353. […] Huh7 cells were maintained in MEM with 10% fetal bovine serum (FBS), 5% L-Glutamine and 5% Penicillin-streptomycin overnight. P2X3 or pCMV6 vector control plasmids (1 m) were transfected with Turbofectin 8.00 (Origene Technologies, Rockville, Md.) in MEM with 5% L-Glutamine. Media was […] hours, according to manufacturer's instructions. Formalin-fixed and paraffin embedded liver sections from HCC patients were analyzed by immunohistochemistry with anti-P2X3 antibody (Abcam, Cambridge, Mass.). HCC cells were grown on glass coverslips; BrdU (10 μM, Roche, Indianapolis, Ind.) was added to culture media for 1 h prior to fixation (cold acetone:methanol, 1:1) and stained using anti-BrdU antibody (DAKO, Carpinteria, Calif.) and DAB Peroxidase Substrate Kit (Vector Labs, Burlingame, Calif.), according to manufacturer's instructions. Counterstaining was done with hematoxylin. BrdU positive cells were counted and expressed as a percentage of the total number of cells in ten randomly selected high-power fields (20×) per coverslips.

The test system of a further assay is human hepatocytes. Kind of assay: Western blotting of cyclin proteins in human hepatocytes. The format is cell-based. On the procedure:
Normal human primary hepatocytes isolated from healthy adults (no known history of HCC) in suspension or freshly-frozen prior to shipment (Cryoport Systems, CA) were purchased from Triangle Research Labs, NC. Fresh hepatocytes were plated on collagen-coated tissue culture plates or glass coverslips in Williams E complete media with additives (10% fetal bovine serum, 2 mM glutamine, […] insulin, 4 ng/ml glucagon, […] transferrin, 2.5 ng/ml sodium selenite, 10,000 U/ml penicillin, […] streptomycin, 50 g/ml gentamycin) for 3 h to ensure hepatocyte adherence to plates. Subsequently, hepatocytes were maintained in Williams E minimal media free from serum and growth factors for 24 h prior to treatment. Human hepatocellular carcinoma derived Huh7, and Hep3B, were cultured in Minimum Essential Medium Eagle (MEM); SNU-387 was cultured in Roswell Park Memorial Institute (RPMI) medium and PLC/PRF/5 cultured in Dulbecco's Modified Eagle's medium (DMEM). All maintenance culture media were supplemented with 10% fetal bovine serum (FBS), L-Glutamine (2 mM), penicillin (100 units/ml) and streptomycin ([…]) at 37° C. and 5% CO2. Cells were maintained in serum free media (containing 2 mM L-Glutamine, 100 units/ml penicillin and ([…])) streptomycin for 24 h prior to treatment. Total protein extracts were obtained by homogenizing cells in total lysis buffer (50 mM Tris-HCl, pH 7.5, 0.5 M NaCl, 2 mM EGTA, 2 mM EDTA, 1.0% Triton X-100, 0.25% Deoxycholate, 1 m/ml pepstatin, 1.0 m/ml leupeptin, 1.0 m/ml aprotinin, 1.0 mM phenylmethylsulfonyl fluoride, 1.0 mM Dithiothreitol, 2.0 mM activated Na3VO4, and 2.0 mM NaF) and centrifuging at 14,000 rpm for 10 min (4° C.). Equal amounts of total proteins as determined by BCA protein Assay (Pierce, Rockford, Ill.) were analyzed by Western blotting. Blots were probed with antibody specific for a-tubulin or GAPDH to ensure equal loading of proteins in each lane.

Another assay relates to Huh7 cells. Kind of assay: Western blotting for survivin in Huh7 cells. The format is cell-based, human. From the text:
Total protein extracts were obtained by homogenizing cells in total lysis buffer and analyzed by Western blotting as described recently (Oncotarget 2015; 6:41162-41179). Next, Applicants tested whether extracellular nucleotide treatment may have an effect on YAP target genes important in hepatocellular carcinoma. […] Moreover, P2X3 antagonist (AF-353) pretreatment attenuated ATP mediated induction of survivin (FIG. 20G).

The mark [2] stands for this setting: transfected Huh7, ATP 100 μM, 24 h.

For `Nc1ncnc2c1ncn2[C@@H]1O[C@H](COP(=O)(O)OP(=O)(O)OP(=O)(O)O)[C@@H](O)[C@H]1O` [ATP], the “proliferation (BrdU incorporation) induced by ATP” value with Hep3B cells (SFM 24 hours, ATP 24 hours) turned out to be 46%. In assay [1] (setting [2]), the “ATP mediated proliferation in P2X3-overexpressing cells vs cells transfected with only pCMV6” value is on record as “significantly higher” and the “BrdU incorporation compared to the pCMV6 control” value is given as “further increased”.
Turning to `Nc1ncnc2c1ncn2[C@@H]1O[C@H](COP(=O)(O)OP(=O)(O)OP(O)(O)=S)[C@@H](O)[C@H]1O` [ATPγS], in the assay on human hepatocytes (ATPγS 24 h), the “cyclin D3 protein expression” value is 2.0 fold and the “cyclin E protein expression” value was found to be 2.0 fold. The compound also came in with a survivin protein expression in the assay on Huh7 cells (ATPγS treatment alone) of 1.8 fold.
On to `COc1cc(C(C)C)c(Oc2cnc(N)nc2N)cc1I` [AF-353], for which the “effect on ATP-mediated induction of BrdU incorporation” value in the assay with Hep3B cells (AF-353 5 μM pre-treatment 30 minutes, ATP 100 μM 24 hours) is given as “completely attenuated; also recorded: attenuates”. Besides, the “effect on ATP-mediated induction of cyclin D3 and cyclin E expression” value in the assay with human hepatocytes (AF-353 5 μM pre-treatment, ATP 24 h) is given as “completely attenuated”. Moreover, in the assay with Huh7 cells (AF-353 pretreatment), the “effect on ATP mediated induction of survivin” value is listed as “attenuated”. Moreover, in assay [1] (P2X3-overexpressing Huh7, AF-353 5 μM, 24 h), the “effect on P2X3 mediated increase in proliferation (BrdU)” value is given as “completely attenuated”. The “effect on ATP mediated increase in BrdU incorporation” value in assay [1] (transfected Huh7, AF-353 5 μM pre-treatment, ATP 100 μM 24 h) is given as “significantly attenuated”.
